How the values were obtained:
[1] = target: T1, HiBit-BRG1 fusion protein (Homo sapiens, UniProt P51532); assay: HiBiT-BRG1 cell-based degradation assay (Nano-Glo HiBiT Lytic Detection, 24 h); settings: HeLa cells expressing HiBit-BRG1 and LgBit; for DC50: read-out: BRG1 HiBit Degradation IC50; for Dmax: HeLa, top dose 30 μM, read-out: BRG1 HiBit Degradation Maximum measured
T1 construct: expressed in transfected cells
Summary of the method: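 Stable HeLa line expressing HiBiT-BRG1 and LgBiT, seeded at 5000 cells/well; luminescence read after lytic Nano-Glo HiBiT reagent and 10 min shaking at RT. % degradation normalised between DMSO (high control) and 2 μM reference BRM/BRG1 degrader (low control).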

HiBit-BRM fusion protein = target: T2, HiBit-BRM fusion protein (Homo sapiens, UniProt P51531); assay: HiBiT-BRM cell-based degradation assay (Nano-Glo HiBiT Lytic Detection, 24 h); settings: HeLa cells expressing HiBiT-BRM; for DC50: read-out: BRM HiBit Degradation IC50; for BRM HiBit Degradation Maximum measured: top dose 30 μM
T2 construct: expressed in transfected cells
T2 sequence (P51531 whole entry, the tested form may be a part): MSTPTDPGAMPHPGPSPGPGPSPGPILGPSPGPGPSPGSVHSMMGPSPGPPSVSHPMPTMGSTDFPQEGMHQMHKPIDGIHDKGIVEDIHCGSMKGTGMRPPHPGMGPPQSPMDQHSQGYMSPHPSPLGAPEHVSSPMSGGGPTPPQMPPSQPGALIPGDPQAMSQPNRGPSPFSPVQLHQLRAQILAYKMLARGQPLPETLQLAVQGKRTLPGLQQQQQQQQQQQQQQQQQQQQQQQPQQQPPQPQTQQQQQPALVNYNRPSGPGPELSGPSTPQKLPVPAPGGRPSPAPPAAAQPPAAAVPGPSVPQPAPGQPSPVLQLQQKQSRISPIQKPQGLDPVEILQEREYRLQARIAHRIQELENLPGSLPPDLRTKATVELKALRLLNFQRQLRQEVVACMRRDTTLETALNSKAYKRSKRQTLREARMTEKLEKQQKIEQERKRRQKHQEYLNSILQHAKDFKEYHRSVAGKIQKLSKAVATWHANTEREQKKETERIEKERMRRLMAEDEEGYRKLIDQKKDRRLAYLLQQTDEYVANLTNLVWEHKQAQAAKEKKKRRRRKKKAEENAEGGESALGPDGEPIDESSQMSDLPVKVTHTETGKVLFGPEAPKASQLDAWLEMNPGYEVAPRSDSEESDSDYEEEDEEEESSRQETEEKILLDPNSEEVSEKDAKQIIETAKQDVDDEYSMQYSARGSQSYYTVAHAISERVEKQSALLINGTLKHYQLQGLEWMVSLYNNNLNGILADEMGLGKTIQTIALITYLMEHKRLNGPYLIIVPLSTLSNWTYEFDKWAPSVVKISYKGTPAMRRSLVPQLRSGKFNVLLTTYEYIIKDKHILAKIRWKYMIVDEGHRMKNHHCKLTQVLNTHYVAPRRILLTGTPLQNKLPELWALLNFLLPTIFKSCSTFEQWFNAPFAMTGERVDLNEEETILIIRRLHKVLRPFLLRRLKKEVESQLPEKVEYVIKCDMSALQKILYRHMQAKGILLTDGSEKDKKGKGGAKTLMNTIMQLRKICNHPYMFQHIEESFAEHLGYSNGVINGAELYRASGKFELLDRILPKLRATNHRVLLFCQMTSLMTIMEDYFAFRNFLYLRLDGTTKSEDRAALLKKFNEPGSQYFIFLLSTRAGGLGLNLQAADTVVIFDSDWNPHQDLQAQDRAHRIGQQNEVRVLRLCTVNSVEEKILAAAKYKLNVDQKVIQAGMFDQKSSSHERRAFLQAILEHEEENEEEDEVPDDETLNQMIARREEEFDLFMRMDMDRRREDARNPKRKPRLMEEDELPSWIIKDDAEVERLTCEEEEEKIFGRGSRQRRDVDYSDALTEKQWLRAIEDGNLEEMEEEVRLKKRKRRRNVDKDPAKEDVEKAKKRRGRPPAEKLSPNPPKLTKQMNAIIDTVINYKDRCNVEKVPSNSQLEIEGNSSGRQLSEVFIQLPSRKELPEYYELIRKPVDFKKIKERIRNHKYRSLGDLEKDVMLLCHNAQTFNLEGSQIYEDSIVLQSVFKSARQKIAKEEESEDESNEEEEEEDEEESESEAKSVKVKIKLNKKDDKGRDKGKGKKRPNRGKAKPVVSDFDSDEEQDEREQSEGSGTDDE
Summary of the method: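 Luminescence from reconstituted NanoBiT luciferase in lysed HeLa HiBiT-BRM cells served as the measure of remaining BRM after 24 h treatment. Compounds were tested from 30 μM final downward in 3-fold steps. DMSO and 2 μM of a standard BRM/BRG1 degrader defined the scale limits.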

T1 sequence (P51532 whole entry, the tested form may be a part): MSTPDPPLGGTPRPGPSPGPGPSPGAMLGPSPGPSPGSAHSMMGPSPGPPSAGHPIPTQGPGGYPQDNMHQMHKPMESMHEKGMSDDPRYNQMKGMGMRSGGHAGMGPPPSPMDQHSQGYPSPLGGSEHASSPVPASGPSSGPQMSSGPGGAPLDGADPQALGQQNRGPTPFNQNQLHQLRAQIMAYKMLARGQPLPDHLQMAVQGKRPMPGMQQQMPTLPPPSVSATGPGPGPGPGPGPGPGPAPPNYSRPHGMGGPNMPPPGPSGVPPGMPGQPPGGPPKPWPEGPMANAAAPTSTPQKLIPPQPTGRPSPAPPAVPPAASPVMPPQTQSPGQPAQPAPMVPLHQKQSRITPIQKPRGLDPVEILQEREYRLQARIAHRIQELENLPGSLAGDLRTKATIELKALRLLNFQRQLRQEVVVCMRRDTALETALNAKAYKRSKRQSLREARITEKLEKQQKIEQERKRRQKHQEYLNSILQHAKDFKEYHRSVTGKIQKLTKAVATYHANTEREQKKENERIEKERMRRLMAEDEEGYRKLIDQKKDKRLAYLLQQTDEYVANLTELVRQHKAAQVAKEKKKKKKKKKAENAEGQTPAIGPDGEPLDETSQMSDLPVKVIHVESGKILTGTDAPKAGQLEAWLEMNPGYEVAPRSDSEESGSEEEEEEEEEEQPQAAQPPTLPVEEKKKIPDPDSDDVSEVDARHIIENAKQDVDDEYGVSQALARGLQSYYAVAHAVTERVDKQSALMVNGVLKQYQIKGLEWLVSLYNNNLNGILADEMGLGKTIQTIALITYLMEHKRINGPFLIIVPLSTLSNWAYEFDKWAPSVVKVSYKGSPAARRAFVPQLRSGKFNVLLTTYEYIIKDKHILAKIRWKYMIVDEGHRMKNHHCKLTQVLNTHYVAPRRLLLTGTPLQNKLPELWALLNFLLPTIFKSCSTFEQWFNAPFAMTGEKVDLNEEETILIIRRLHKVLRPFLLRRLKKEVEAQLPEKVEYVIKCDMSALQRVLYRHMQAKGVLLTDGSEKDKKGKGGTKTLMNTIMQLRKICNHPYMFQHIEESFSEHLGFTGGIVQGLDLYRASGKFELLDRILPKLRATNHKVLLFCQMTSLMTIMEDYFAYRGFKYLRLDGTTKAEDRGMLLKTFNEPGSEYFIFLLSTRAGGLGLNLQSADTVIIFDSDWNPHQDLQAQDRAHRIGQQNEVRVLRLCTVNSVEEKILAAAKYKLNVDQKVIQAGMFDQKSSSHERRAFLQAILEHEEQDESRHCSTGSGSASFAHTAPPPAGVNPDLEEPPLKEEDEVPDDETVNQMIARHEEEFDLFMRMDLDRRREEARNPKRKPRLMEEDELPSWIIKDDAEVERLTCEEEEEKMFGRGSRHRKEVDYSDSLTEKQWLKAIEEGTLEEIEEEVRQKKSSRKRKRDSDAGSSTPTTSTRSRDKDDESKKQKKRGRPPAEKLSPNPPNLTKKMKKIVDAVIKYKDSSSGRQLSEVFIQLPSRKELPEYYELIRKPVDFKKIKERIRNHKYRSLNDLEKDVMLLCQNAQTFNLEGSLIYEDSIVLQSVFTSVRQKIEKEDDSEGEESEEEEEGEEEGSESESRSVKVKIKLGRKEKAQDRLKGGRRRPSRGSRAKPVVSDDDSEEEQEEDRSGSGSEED

DC50 [1] | Dmax [1] | DC50 (HiBit-BRM fusion protein) | BRM HiBit Degradation Maximum measured (HiBit-BRM fusion protein) | SMILES
0.1 to 1 µM | 50 to 75% | > 10 µM | C (‘C’ = Maximum degradation <50%) | CS(=O)(=O)n1ccc(C(=O)NCC(=O)Nc2nc(-c3cccc(-c4ccnc(C5(C(=O)NCCS(=O)(=O)CCNc6cccc7c6C(=O)N(C6CCC(=O)NC6=O)C7=O)CC5)c4)c3)cs2)c1 (centres unmarked) [Compound 102, N-[2-[[4-[3-[2-[1-[2-[2-[[2-(2,6-dioxo-3-piperidyl)-1,3-dioxo-isoindolin-4-yl]amino]ethylsulfonyl]ethylcarbamoyl]-cyclopropyl]-4-pyridyl]phenyl]thiazol-2-yl]amino]-2-oxo-ethyl]-1-methylsulfonylpyrrole-3-carboxamide]
> 10 µM | < 50% | > 10 µM | C (‘C’ = Maximum degradation <50%) | CS(=O)(=O)n1ccc(C(=O)N[C@@H](CCOCCCC(=O)NCCOCc2cccc(COCCOc3ccc4c(c3)C(=O)N(C3CCC(=O)NC3=O)C4=O)c2)C(=O)Nc2nc(-c3ccccc3)cs2)c1 (stereo partly drawn) [Compound 261, (2S)-4-(3-[[2-([3-[(2-[[2-(2,6-dioxopiperidin-3-yl)-1,3-dioxoisoindol-5-yl]oxy]ethoxy)methyl]phenyl]methoxy)ethyl]carbamoyl]propoxy)-2-[(1-methanesulfonylpyrrol-3-yl)formamido]-N-(4-phenyl-1,3-thiazol-2-yl)butanamide]
> 10 µM | < 50% | > 10 µM | C (‘C’ = Maximum degradation <50%) | CN(CC(=O)NCCOCCOCCNc1ccc2c(c1)C(=O)N(C1CCC(=O)NC1=O)C2=O)c1cc(-c2cccc(-c3csc(NC(=O)CNC(=O)c4ccn(S(C)(=O)=O)c4)n3)c2)ccn1 (centres unmarked) [Compound 93]
> 10 µM | < 50% | > 10 µM | C (‘C’ = Maximum degradation <50%) | Cc1ncsc1-c1ccc(CNC(=O)[C@@H]2C[C@@H](O)CN2C(=O)[C@@H](NC(=O)N2CC(C(=O)NCc3cccc(-c4cccc(-c5csc(NC(=O)CNC(=O)c6ccn(S(C)(=O)=O)c6)n5)c4)c3)C2)C(C)(C)C)cc1 [Compound 160, N1-[(2S)-1-[(2S,4R)-4-hydroxy-2-([[4-(4-methyl-1,3-thiazol-5-yl)phenyl]methyl]carbamoyl)pyrrolidin-1-yl]-3,3-dimethyl-1-oxobutan-2-yl]-N3-[[3-(2-[2-[(1-methanesulfonylpyrrol-3-yl)formamido]acetamido]-1,3-thiazol-4-yl)-[1,1-biphenyl]-3-yl]methyl]azetidine-1,3-dicarboxamide]
> 10 µM | < 50% | > 10 µM | C (‘C’ = Maximum degradation <50%) | CS(=O)(=O)n1ccc(C(=O)NCC(=O)Nc2nc(C3CCCN(C(=O)CCCCOc4cccc5c4C(=O)N(C4CCC(=O)NC4=O)C5=O)C3)cs2)c1 (centres unmarked) [Compound 147, N-{4-[1-(5-{[2-(2,6-dioxopiperidin-3-yl)-1,3-dioxo-2,3-dihydro-1H-isoindol-4-yl]oxy}pentanoyl)piperidin-3-yl]-1,3-thiazol-2-yl}-2-[(1-methanesulfonyl-1H-pyrrol-3-yl)formamido]acetamide]
< 0.1 µM | > 75% | < 0.1 µM | A (‘A’ = Maximum degradation >75%) | CS(=O)(=O)n1ccc(C(=O)N[C@@H](COCc2ccc(C(=O)NCCC3CCN(c4ccc5c(c4)C(=O)N(C4CCC(=O)NC4=O)C5=O)CC3)cc2)C(=O)Nc2nc(-c3ccccc3)cs2)c1 (stereo partly drawn) [Compound 245, N-(2-[1-[2-(2,6-dioxopiperidin-3-yl)-1,3-dioxoisoindol-5-yl]piperidin-4-yl]ethyl)-4-[[(2S)-2-[(1-methanesulfonylpyrrol-3-yl)formamido]-2-[(4-phenyl-1,3-thiazol-2-yl)carbamoyl]ethoxy]methyl]benzamide]
> 10 µM | < 50% | > 10 µM | C (‘C’ = Maximum degradation <50%) | CS(=O)(=O)n1ccc(C(=O)NCC(=O)Nc2nc(-c3cccc(-c4ccnc(OCCNC(=O)C5CC5CNC(=O)COc5cccc6c5C(=O)N(C5CCC(=O)NC5=O)C6=O)c4)c3)cs2)c1 (centres unmarked) [Compound 37, N-[2-[[4-[3-[2-[2-[[2-[[[2-[2-(2,6-dioxo-3-piperidyl)-1,3-dioxoisoindolin-4-yl]oxyacetyl]amino]methyl]cyclopropanecarbonyl]amino]ethoxy]-4-pyridyl]phenyl]thiazol-2-yl]amino]-2-oxoethyl]-1-methylsulfonyl-pyrrole-3-carboxamide]
0.1 to 1 µM | > 75% | 0.1 to 1 µM | A (‘A’ = Maximum degradation >75%) | Cc1ncsc1-c1ccc(CNC(=O)[C@@H]2C[C@@H](O)CN2C(=O)[C@@H](NC(=O)CCCCCC(=O)NCc2cccc(-c3cccc(-c4csc(NC(=O)CNC(=O)c5ccn(S(C)(=O)=O)c5)n4)c3)c2)C(C)(C)C)cc1 [Compound 62, N1-((S)-1-((2S,4R)-4-hydroxy-2-((4-(4-methylthiazol-5-yl)benzyl)carbamoyl)pyrrolidin-1-yl)-3,3-dimethyl-1-oxobutan-2-yl)-N7-((3′-(2-(2-(1-(methylsulfonyl)-1H-pyrrole-3-carboxamido)acetamido)thiazol-4-yl)-[1,1′-biphenyl]-3-yl)methyl)heptanediamide]
> 10 µM | < 50% | > 10 µM | C (‘C’ = Maximum degradation <50%) | Cc1ncsc1-c1ccc(CNC(=O)[C@@H]2C[C@@H](O)CN2C(=O)[C@@H](NC(=O)C2CC2C(=O)NCc2cccc(-c3cccc(-c4csc(NC(=O)CNC(=O)c5ccn(S(C)(=O)=O)c5)n4)c3)c2)C(C)(C)C)cc1 (stereo partly drawn) [Compound 159, N1-[(2S)-1-[(2S,4R)-4-hydroxy-2-([[4-(4-methyl-1,3-thiazol-5-yl)phenyl]methyl]carbamoyl)pyrrolidin-1-yl]-3,3-dimethyl-1-oxobutan-2-yl]-N2-[[3-(2-[2-[(1-methanesulfonylpyrrol-3-yl)formamido]acetamido]-1,3-thiazol-4-yl)-[1,1-biphenyl]-3-yl]methyl]cyclopropane-1,2-dicarboxamide]
> 10 µM | < 50% | > 10 µM | C (‘C’ = Maximum degradation <50%) | CS(=O)(=O)n1ccc(C(=O)NCC(=O)Nc2nc(-c3cccc(-c4ccnc(C5(C(=O)NCCOCCOCCNC(=O)COc6cccc7c6C(=O)N(C6CCC(=O)NC6=O)C7=O)CC5)c4)c3)cs2)c1 (centres unmarked) [Compound 128]
> 10 µM | < 50% | > 10 µM | C (‘C’ = Maximum degradation <50%) | Cc1cc(C(=O)NCC(=O)Nc2nc(-c3cccc(-c4ccnc(N(C)CC(=O)NCCOCCOCCNc5cccc6c5C(=O)N(C5CCC(=O)NC5=O)C6=O)c4)c3)cs2)cn1S(C)(=O)=O (centres unmarked) [Compound 122, N-(2-((4-(3-(2-((2-((2-(2-(2-((2-(2,6-dioxopiperidin-3-yl)-1,3-dioxoisoindolin-4-yl)amino)ethoxy)ethoxy)ethyl)amino)-2-oxoethyl)(methyl)amino)pyridin-4-yl)phenyl)thiazol-2-yl)amino)-2-oxoethyl)-5-methyl-1-(methylsulfonyl)-1H-pyrrole-3-carboxamide]
> 10 µM | < 50% | > 10 µM | C (‘C’ = Maximum degradation <50%) | CS(=O)(=O)n1ccc(C(=O)N[C@@H](CCCCNC(=O)C2CC2CNC(=O)COc2cccc3c2C(=O)N(C2CCC(=O)NC2=O)C3=O)C(=O)Nc2nc(-c3ccccc3)cs2)c1 (stereo partly drawn) [Compound 284, (2S)-6-([2-[(2-[[2-(2,6-dioxopiperidin-3-yl)-1,3-dioxoisoindol-4-yl]oxy]acetamido)methyl]cyclopropyl]formamido)-2-[(1-methanesulfonylpyrrol-3-yl)formamido]-N-(4-phenyl-1,3-thiazol-2-yl)hexanamide]

SMILES | DC50 [1] | Dmax [1] | DC50 (HiBit-BRM fusion protein) | BRM HiBit Degradation Maximum measured (HiBit-BRM fusion protein)
CS(=O)(=O)n1ccc(C(=O)N[C@@H](COCc2ccc(C(=O)N3CC(CN4CCN(c5ccc6c(c5)C(=O)N(C5CCC(=O)NC5=O)C6=O)CC4)C3)cc2)C(=O)Nc2nc(-c3ccccc3)cs2)c1 (stereo partly drawn) [Compound 193, (2S)-3-([4-[3-([4-[2-(2,6-dioxopiperidin-3-yl)-1,3-dioxoisoindol-5-yl]piperazin-1-yl]methyl)azetidine-1-carbonyl]phenyl]methoxy)-2-[(1-methanesulfonylpyrrol-3-yl)formamido]-N-(4-phenyl-1,3-thiazol-2-yl)propanamide; formic acid] | 0.1 to 1 µM | > 75% | 0.1 to 1 µM | B (‘B’ = Maximum degradation ≥50% and ≤75%)
Cc1ncsc1-c1ccc(CNC(=O)[C@@H]2C[C@@H](O)CN2C(=O)[C@@H](NC(=O)CCCCCCCCCCCCCC(=O)NCc2cccc(-c3cccc(-c4csc(NC(=O)CNC(=O)c5ccn(S(C)(=O)=O)c5)n4)c3)c2)C(C)(C)C)cc1 [Compound 126, N′-[(1S)-1-[(2S,4R)-4-hydroxy-2-[[4-(4-methylthiazol-5-yl)phenyl]methylcarbamoyl]pyrrolidine-1-carbonyl]-2,2-dimethyl-propyl]-N-[[3-[3-[2-[[2-[(1-methylsulfonylpyrrole-3-carbonyl)amino]acetyl]amino]thiazol-4-yl]phenyl]phenyl]methyl]pentadecanediamide] | 0.1 to 1 µM | 50 to 75% | 0.1 to 1 µM | B (‘B’ = Maximum degradation ≥50% and ≤75%)

— US12662479B2 (Foghorn Therapeutics Inc., priority 2020, dated 2026)
